We go through three compounds from patent publication US8852656B2, “Sleep improvement composition” (Taiyokagaku Co., Ltd., priority 2004, dated 2014).

For data set [1], the system named is rat. The conditions noted are these: administered to a rat; cited from earlier work.
For data set [2] the following is noted: reported, Patent Document 1; cited from earlier work.
Data set [3] has as its system mice. The data set is classed as in vivo. The conditions noted are these: oral administration of 5 g/kg. From the text:
In particular, theanine is known as a “umami” component of tea, is used as a food additive for providing flavor, and the Food Sanitation Law places no restrictions in addition amount.

With `CC/C=C\C/C=C\C/C=C\C/C=C\C/C=C\C/C=C\CCC(=O)O[C@H](COC(=O)CCCCCCC/C=C\CCCCCCCC)COP(=O)([O-])OCC[N+](C)(C)C` [1-oleoyl-2-DHA-sn-3-phosphocholine], in data set [1], the Effect on sleep result was “the total sleeping time within 24 hours, the REM sleeping time, and the REM sleeping time with respect to the total sleeping time are increased”. In the case of `C[C@@H]1CC[C@H]2C(C)(C)[C@H]3C[C@@]12CC[C@@]3(C)O` [cedrol], the Effect on sleep result in data set [2] was “elongate the total sleeping time, shorten the sleep latency time, and increase the sleep efficiency”. For the compound `CCNC(=O)CC[C@H](N)C(=O)O` [theanine], the “Death in acute toxicity test” value in data set [3] is listed as “no cases of death”.
